# Read-outs that look alike come from different tables or passages of the source.
# Assays:
# Assay type in all cases: biochemical
# TBK1 = target: T1, TBK1 (Homo sapiens, UniProt Q9UHD2); assay: Kinase profiling TBK1; conditions: for remaining activity at 100 µM: read-out: residual kinase activity, TBK1
# T1 sequence (Q9UHD2 1-729): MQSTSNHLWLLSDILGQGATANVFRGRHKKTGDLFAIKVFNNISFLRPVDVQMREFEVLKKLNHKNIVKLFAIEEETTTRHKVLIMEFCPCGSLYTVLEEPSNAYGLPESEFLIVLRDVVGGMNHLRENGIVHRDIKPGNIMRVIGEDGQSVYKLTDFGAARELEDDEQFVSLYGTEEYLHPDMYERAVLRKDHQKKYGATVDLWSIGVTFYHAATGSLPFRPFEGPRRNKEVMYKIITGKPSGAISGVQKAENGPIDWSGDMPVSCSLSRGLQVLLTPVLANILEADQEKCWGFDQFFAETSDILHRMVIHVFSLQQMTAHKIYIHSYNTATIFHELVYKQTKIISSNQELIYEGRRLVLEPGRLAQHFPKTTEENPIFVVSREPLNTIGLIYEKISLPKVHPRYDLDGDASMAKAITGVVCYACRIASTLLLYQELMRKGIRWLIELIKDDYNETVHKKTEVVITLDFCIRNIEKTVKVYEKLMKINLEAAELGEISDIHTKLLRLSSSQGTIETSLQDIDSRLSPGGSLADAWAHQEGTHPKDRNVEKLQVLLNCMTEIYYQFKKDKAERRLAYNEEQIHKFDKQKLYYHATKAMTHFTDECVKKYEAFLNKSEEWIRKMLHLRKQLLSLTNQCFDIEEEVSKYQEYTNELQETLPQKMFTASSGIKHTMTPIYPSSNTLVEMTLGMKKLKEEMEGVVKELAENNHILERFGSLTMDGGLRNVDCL
# Source text: (§1) Any value less that 25 is considered to be highly significant inhibition.
# PKD1 = target: T2, PKD1 (Homo sapiens, UniProt Q15139); assay: Kinase profiling PKD1; conditions: for remaining activity at 100 µM: read-out: residual kinase activity, PKD1
# T2 sequence (Q15139 1-912): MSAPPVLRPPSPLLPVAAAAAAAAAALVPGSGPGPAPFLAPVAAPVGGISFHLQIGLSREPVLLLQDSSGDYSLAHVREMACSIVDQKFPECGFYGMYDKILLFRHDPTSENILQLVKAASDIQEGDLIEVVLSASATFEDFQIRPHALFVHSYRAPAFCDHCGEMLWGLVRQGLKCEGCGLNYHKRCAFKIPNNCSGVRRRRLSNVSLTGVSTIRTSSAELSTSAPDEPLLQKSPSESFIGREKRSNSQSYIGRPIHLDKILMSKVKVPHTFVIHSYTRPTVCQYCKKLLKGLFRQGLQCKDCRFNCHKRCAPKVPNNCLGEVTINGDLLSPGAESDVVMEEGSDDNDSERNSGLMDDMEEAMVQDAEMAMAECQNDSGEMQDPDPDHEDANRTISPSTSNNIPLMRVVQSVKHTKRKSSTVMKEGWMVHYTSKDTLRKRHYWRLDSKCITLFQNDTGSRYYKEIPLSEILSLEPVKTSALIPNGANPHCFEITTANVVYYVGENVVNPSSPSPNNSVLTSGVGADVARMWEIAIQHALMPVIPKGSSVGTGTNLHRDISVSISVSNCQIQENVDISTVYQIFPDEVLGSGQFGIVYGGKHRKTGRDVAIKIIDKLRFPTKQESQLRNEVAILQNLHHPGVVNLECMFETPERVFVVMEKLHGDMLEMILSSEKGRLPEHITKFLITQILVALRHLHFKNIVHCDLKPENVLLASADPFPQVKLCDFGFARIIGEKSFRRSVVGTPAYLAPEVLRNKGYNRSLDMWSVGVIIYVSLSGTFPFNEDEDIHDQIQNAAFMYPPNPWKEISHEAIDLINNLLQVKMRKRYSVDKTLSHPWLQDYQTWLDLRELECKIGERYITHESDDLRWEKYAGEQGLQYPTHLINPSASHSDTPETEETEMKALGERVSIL
# Source text: as §1
# MLK3 = MLK3 (Homo sapiens, UniProt Q16584); assay: Kinase profiling MLK3; conditions: for remaining activity at 100 µM: read-out: residual kinase activity, MLK3
# Source text: as §1
# ROCK 2 = ROCK 2 (Homo sapiens, UniProt O75116); assay: Kinase profiling ROCK 2; conditions: for remaining activity at 100 µM: read-out: residual kinase activity, ROCK 2
# Source text: as §1
# PLK1 = PLK1 (Homo sapiens, UniProt P53350); assay: Kinase profiling PLK1; conditions: for remaining activity at 100 µM: read-out: residual kinase activity, PLK1
# Source text: as §1
# JNK1 = JNK1 (Homo sapiens, UniProt P45983); assay: Kinase profiling JNK1; conditions: for remaining activity at 100 µM: read-out: residual kinase activity, JNK1
# Source text: as §1
# CAMK1 = CAMK1 (Homo sapiens, UniProt Q14012); assay: Kinase profiling CAMK1; conditions: for remaining activity at 100 µM: read-out: residual kinase activity, CAMK1
# Source text: as §1
# CHK2 = CHK2 (Homo sapiens, UniProt O96017); assay: Kinase profiling CHK2; conditions: for remaining activity at 100 µM: read-out: residual kinase activity, CHK2
# Source text: as §1
# [1] = 100 micromolar inhibitor concentration, 100 is no change
# [2] = 100 micromolar inhibitor, 100 = no change
# CHK2, sequence (O96017 whole entry, species assumed): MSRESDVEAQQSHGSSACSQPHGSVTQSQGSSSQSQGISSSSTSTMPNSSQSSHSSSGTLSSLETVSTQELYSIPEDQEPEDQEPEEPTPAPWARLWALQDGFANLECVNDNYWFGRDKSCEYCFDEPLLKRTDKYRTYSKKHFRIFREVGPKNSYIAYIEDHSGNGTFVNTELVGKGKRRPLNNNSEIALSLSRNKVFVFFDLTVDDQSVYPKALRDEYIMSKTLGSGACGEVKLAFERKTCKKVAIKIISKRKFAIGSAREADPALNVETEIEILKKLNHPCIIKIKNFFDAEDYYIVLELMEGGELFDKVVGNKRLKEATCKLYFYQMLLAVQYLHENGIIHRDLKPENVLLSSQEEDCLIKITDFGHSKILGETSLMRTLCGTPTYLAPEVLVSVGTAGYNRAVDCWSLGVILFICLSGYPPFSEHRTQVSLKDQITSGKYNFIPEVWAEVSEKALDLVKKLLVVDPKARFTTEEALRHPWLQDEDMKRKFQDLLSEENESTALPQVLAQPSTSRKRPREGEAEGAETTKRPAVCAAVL
# JNK1, sequence (P45983 whole entry, species assumed): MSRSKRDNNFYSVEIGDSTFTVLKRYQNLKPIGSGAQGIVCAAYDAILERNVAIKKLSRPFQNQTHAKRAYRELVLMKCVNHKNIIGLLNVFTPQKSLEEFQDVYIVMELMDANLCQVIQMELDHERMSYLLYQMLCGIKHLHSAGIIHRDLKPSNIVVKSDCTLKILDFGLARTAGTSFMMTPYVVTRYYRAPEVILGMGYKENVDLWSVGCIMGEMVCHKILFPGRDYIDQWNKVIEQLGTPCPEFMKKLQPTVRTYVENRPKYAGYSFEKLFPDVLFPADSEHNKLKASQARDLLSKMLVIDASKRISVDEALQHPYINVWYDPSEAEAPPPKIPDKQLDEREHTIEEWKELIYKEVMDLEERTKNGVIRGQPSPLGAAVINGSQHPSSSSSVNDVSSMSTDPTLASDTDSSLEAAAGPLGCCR
# ROCK 2, sequence (O75116 whole entry, species assumed): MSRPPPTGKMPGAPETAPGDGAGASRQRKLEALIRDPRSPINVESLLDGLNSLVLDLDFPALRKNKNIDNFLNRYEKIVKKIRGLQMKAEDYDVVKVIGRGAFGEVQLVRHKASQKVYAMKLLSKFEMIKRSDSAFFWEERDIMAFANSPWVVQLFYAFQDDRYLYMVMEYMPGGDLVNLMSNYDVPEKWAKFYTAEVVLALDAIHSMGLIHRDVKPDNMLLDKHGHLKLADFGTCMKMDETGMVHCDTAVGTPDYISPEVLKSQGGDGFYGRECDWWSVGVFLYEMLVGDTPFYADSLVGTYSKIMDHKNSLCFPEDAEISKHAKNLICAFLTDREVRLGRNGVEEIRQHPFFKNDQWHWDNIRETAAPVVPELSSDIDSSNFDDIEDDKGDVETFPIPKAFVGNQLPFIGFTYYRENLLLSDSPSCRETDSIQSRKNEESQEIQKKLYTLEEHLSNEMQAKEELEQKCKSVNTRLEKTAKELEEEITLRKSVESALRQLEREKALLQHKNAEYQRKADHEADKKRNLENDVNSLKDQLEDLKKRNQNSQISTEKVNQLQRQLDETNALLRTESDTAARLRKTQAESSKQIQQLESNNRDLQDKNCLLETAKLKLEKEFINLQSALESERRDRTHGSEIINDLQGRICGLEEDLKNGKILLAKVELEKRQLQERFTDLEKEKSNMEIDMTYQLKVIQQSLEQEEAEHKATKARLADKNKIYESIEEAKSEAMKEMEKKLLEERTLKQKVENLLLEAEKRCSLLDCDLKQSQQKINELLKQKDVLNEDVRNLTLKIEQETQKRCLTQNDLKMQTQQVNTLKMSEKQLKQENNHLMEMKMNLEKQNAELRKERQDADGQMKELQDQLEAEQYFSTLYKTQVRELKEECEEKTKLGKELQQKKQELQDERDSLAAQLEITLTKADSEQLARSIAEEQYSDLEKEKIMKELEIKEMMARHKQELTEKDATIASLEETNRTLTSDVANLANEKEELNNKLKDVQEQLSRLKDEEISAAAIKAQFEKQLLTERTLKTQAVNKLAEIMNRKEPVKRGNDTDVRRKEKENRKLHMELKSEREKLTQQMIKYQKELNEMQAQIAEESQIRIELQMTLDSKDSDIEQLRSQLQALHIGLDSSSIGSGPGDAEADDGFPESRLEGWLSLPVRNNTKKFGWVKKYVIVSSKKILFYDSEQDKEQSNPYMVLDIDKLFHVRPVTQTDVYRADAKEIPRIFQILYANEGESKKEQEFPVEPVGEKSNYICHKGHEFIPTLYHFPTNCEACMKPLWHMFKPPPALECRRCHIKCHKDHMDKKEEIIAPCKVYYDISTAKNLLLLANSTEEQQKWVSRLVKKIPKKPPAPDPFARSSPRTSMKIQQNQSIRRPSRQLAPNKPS
# MLK3, sequence (Q16584 whole entry, species assumed): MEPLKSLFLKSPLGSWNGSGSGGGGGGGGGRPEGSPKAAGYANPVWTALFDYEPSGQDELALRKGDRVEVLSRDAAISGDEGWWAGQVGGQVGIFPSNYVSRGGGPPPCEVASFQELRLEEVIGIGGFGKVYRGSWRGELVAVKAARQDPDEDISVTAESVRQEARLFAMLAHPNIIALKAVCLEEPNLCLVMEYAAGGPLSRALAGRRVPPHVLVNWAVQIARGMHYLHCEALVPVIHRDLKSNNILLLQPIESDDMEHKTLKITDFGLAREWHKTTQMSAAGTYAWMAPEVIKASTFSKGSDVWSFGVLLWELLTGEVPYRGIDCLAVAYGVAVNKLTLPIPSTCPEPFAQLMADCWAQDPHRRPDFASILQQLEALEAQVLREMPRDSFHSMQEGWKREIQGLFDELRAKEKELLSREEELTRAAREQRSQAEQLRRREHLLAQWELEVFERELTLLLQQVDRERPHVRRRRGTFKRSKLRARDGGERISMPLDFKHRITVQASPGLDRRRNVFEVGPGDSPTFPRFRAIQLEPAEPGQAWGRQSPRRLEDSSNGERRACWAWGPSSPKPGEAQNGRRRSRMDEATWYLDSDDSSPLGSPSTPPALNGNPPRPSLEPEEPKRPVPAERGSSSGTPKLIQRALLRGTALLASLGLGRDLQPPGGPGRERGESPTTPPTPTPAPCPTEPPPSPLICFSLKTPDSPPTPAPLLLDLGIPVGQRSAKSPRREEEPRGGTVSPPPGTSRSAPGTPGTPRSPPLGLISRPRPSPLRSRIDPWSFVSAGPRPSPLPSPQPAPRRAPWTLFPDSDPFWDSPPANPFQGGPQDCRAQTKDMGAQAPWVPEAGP
# CAMK1, sequence (Q14012 whole entry, species assumed): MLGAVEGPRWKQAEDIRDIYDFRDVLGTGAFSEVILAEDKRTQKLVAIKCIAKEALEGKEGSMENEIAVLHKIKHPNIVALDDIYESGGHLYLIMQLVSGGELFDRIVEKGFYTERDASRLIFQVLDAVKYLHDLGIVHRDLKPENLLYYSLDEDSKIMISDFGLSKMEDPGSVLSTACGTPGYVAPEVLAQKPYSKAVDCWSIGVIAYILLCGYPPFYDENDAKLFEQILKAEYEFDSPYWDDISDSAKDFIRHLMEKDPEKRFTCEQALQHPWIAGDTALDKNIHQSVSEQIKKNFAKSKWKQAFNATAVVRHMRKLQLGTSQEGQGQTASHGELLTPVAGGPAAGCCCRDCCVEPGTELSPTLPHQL
# PLK1, sequence (P53350 whole entry, species assumed): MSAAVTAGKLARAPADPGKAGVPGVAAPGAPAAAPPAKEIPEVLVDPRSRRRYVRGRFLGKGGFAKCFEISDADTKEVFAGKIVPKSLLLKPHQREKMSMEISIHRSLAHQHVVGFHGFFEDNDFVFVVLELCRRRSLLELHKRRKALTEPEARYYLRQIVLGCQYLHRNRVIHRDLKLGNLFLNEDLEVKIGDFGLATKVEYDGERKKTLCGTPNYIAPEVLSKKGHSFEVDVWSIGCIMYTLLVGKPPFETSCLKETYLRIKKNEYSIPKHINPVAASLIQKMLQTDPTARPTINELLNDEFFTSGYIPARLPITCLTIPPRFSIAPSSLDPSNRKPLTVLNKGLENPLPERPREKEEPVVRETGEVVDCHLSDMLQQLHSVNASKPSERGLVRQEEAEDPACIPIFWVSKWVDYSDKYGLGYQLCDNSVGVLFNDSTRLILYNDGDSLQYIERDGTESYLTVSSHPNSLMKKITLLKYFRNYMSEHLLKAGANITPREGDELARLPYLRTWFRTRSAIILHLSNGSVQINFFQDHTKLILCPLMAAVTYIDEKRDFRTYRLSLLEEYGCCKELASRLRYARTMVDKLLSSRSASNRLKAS
smiles,measurement,setting,value
O=C(Nc1nc2ccc(F)cc2s1)c1ccccc1 [Compound 03-92],"residual kinase activity, TBK1",TBK1; [1],92
same,"residual kinase activity, PKD1",PKD1; [1],111
same,"residual kinase activity, MLK3",MLK3; [1],49
same,"residual kinase activity, ROCK 2",ROCK 2; [1],95
same,"residual kinase activity, PLK1",PLK1; [1],92
same,"residual kinase activity, JNK1",JNK1; [1],94
same,"residual kinase activity, CAMK1",CAMK1; [1],97
same,"residual kinase activity, CHK2",CHK2; [1],80
CC(=O)Nc1nc2ccc(F)cc2s1 [Compound 03-94],"residual kinase activity, TBK1",TBK1; [1],91
same,"residual kinase activity, PKD1",PKD1; [1],105
same,"residual kinase activity, MLK3",MLK3; [1],46
same,"residual kinase activity, ROCK 2",ROCK 2; [1],70
same,"residual kinase activity, PLK1",PLK1; [1],93
same,"residual kinase activity, JNK1",JNK1; [1],82
same,"residual kinase activity, CAMK1",CAMK1; [1],86
same,"residual kinase activity, CHK2",CHK2; [1],74
COc1ccc2sc(NC(=O)c3ccccc3)nc2c1 [Compound 03-95],"residual kinase activity, TBK1",TBK1; [1],100
same,"residual kinase activity, PKD1",PKD1; [1],92
same,"residual kinase activity, MLK3",MLK3; [1],40
same,"residual kinase activity, ROCK 2",ROCK 2; [1],54
same,"residual kinase activity, PLK1",PLK1; [1],77
same,"residual kinase activity, JNK1",JNK1; [1],90
same,"residual kinase activity, CAMK1",CAMK1; [1],76
same,"residual kinase activity, CHK2",CHK2; [1],98
COc1ccc2nc(NC(=O)c3ccccc3)sc2c1 [Compound 03-98],"residual kinase activity, TBK1",TBK1; [1],95
same,"residual kinase activity, PKD1",PKD1; [1],104
same,"residual kinase activity, MLK3",MLK3; [1],20
same,"residual kinase activity, ROCK 2",ROCK 2; [1],66
same,"residual kinase activity, PLK1",PLK1; [1],102
same,"residual kinase activity, JNK1",JNK1; [1],95
same,"residual kinase activity, CAMK1",CAMK1; [1],68
same,"residual kinase activity, CHK2",CHK2; [1],37
O=C(Nc1nc2ccc(C(F)(F)F)cc2s1)c1ccccc1 [Compound 03-99],"residual kinase activity, TBK1",TBK1; [1],96
same,"residual kinase activity, PKD1",PKD1; [1],114
same,"residual kinase activity, MLK3",MLK3; [1],72
same,"residual kinase activity, ROCK 2",ROCK 2; [1],97
same,"residual kinase activity, PLK1",PLK1; [1],112
same,"residual kinase activity, JNK1",JNK1; [1],86
same,"residual kinase activity, CAMK1",CAMK1; [1],84
same,"residual kinase activity, CHK2",CHK2; [1],94
O=C(Nc1nc2cc(O)ccc2s1)c1ccccc1 [Compound 03-102],"residual kinase activity, TBK1",TBK1; [1],66
same,"residual kinase activity, PKD1",PKD1; [1],60
same,"residual kinase activity, MLK3",MLK3; [1],15
same,"residual kinase activity, ROCK 2",ROCK 2; [1],47
same,"residual kinase activity, PLK1",PLK1; [1],83
same,"residual kinase activity, JNK1",JNK1; [1],83
same,"residual kinase activity, CAMK1",CAMK1; [1],72
same,"residual kinase activity, CHK2",CHK2; [1],26
"COC(=O)c1cccc(C(=O)Nc2nc3ccc(C(F)(F)F)cc3s2)c1 [Compound 03-105, Methyl 3-((6-(trifluoromethyl)benzo[d]thiazol-2-yl)carbamoyl)benzoate]",remaining activity at 100 µM,TBK1,101%
same,remaining activity at 100 µM,PKD1,90%
same,remaining activity at 100 µM,MLK3,54%
same,remaining activity at 100 µM,ROCK 2,103%
same,remaining activity at 100 µM,PLK1,101%
same,remaining activity at 100 µM,JNK1,84%
same,remaining activity at 100 µM,CAMK1,92%
same,remaining activity at 100 µM,CHK2,89%
N#Cc1ccc2nc(NC(=O)c3ccccc3)sc2c1 [Compound 03-106],"residual kinase activity, TBK1",TBK1; [1],94
same,"residual kinase activity, PKD1",PKD1; [1],86
same,"residual kinase activity, MLK3",MLK3; [1],56
same,"residual kinase activity, ROCK 2",ROCK 2; [1],125
same,"residual kinase activity, PLK1",PLK1; [1],103
same,"residual kinase activity, JNK1",JNK1; [1],84
same,"residual kinase activity, CAMK1",CAMK1; [1],69
same,"residual kinase activity, CHK2",CHK2; [1],62
COC(=O)c1cccc(C(=O)Nc2nc3cc(OC)ccc3s2)c1 [Compound 03-108],"residual kinase activity, TBK1",TBK1; [1],102
same,"residual kinase activity, PKD1",PKD1; [1],102
same,"residual kinase activity, MLK3",MLK3; [1],76
same,"residual kinase activity, ROCK 2",ROCK 2; [1],52
same,"residual kinase activity, PLK1",PLK1; [1],96
same,"residual kinase activity, JNK1",JNK1; [1],93
same,"residual kinase activity, CAMK1",CAMK1; [1],96
same,"residual kinase activity, CHK2",CHK2; [1],65
COC(=O)c1cccc(C(=O)Nc2nc3ccc(F)cc3s2)c1 [Compound 03-110],"residual kinase activity, TBK1",TBK1; [1],96
same,"residual kinase activity, PKD1",PKD1; [1],88
same,"residual kinase activity, MLK3",MLK3; [1],68
same,"residual kinase activity, ROCK 2",ROCK 2; [1],86
same,"residual kinase activity, PLK1",PLK1; [1],108
same,"residual kinase activity, JNK1",JNK1; [1],98
same,"residual kinase activity, CAMK1",CAMK1; [1],99
same,"residual kinase activity, CHK2",CHK2; [1],51
COc1ccc2sc(NC(=O)c3cccc(C(N)=O)c3)nc2c1 [Compound 03-113],"residual kinase activity, TBK1",TBK1; [1],98
same,"residual kinase activity, PKD1",PKD1; [1],110
same,"residual kinase activity, MLK3",MLK3; [1],73
same,"residual kinase activity, ROCK 2",ROCK 2; [1],68
same,"residual kinase activity, PLK1",PLK1; [1],105
same,"residual kinase activity, JNK1",JNK1; [1],86
same,"residual kinase activity, CAMK1",CAMK1; [1],102
same,"residual kinase activity, CHK2",CHK2; [1],98
COc1ccc2nc(C(=O)Nc3ccccc3)sc2c1 [Compound 13-03],"residual kinase activity, TBK1",TBK1; [2],98
same,"residual kinase activity, PKD1",PKD1; [2],113
same,"residual kinase activity, MLK3",MLK3; [2],89
same,"residual kinase activity, ROCK 2",ROCK 2; [2],70
same,"residual kinase activity, PLK1",PLK1; [2],93
same,"residual kinase activity, JNK1",JNK1; [2],88
same,"residual kinase activity, CAMK1",CAMK1; [2],94
same,"residual kinase activity, CHK2",CHK2; [2],92
CC(=O)Nc1nc2ccc([N+](=O)[O-])cc2s1 [Compound 13-10],remaining activity at 100 µM,TBK1; [1],89%
same,remaining activity at 100 µM,PKD1; [1],82%
same,remaining activity at 100 µM,MLK3; [1],54%
same,remaining activity at 100 µM,ROCK 2; [1],96%
same,remaining activity at 100 µM,PLK1; [1],96%
same,remaining activity at 100 µM,JNK1; [1],82%
same,remaining activity at 100 µM,CAMK1; [1],84%
same,remaining activity at 100 µM,CHK2; [1],59%
